Experimental data as given in patent US20240300945A1, “CLY SERIES COMPOUND, PREPARATION METHOD THEREFOR AND USE THEREOF IN PREPARATION OF DRUGS” (NANJING WELLBEST PHARMACEUTICAL CO., LTD, priority 2021, published 2024).

Columns and labels:
[1] = system: chloasma model of guinea pig; experiment: Chloasma model of guinea pig: tyrosine, MDA content and SOD activity of skin tissue; format: in vivo; settings: 0.25% cream on the skin once a day, 30 days
Description: 1.1.4 Preparation method of treatment cream: The excipient matrix components include methyl silicone oil (15%), stearic acid (6%), white vaseline (5%), liquid paraffin (5%), octadecanol (5%), glycerin (20%), alkyl aryl polyglycol ether (1%), fatty alcohol polyoxyethylene ether (1%), […] (1%), ethyl paraben (0.1%), distilled water (about 31-55%), and are mixed with appropriate amount of CLY series compounds to form 0.25% mixed emulsion. The cream matrix used in this embodiment refers to the matrix components after the active ingredients are removed from the cream.
According to the body weight, they were randomly divided into the model control group (applied cream matrix), blank control group (applied cream matrix), CLY-1 treatment group (applied 0.25% CLY-1 cream on the skin), CLY-2 treatment group (0.25% CLY-2 cream on the skin), CLY-3 treatment group (0.25% CLY-3 cream on the skin), CLY-4 treatment group (0.25% CLY-4 cream on the skin), CLY-5 treatment group (0.25% CLY-5 cream on the skin) CLY-8 treatment group (0.25% CLY-8 cream on the skin), CLY-11 treatment group (0.25% CLY-11 cream on the skin), CLY-19 treatment group (0.25% CLY-19 cream on the skin), CLY-36 treatment group (0.25% CLY-36 cream on the skin), CLY-39 treatment group (0.25% CLY-39 cream on the skin), positive treatment group (0.25% arbutin cream on the skin), 6 in each group. In addition to the blank control group, all guinea pigs in the other groups were injected with 20 mg/ml progesterone injection (7.5 mg/kg) into the muscle at the root of the hind leg, once a day, for 30 consecutive days to establish the chloasma model. […] After modeling, the guinea pigs in the model control group, blank control group, each CLY series treatment group, and positive treatment group were treated with corresponding cream on the back for intervention, once a day, for 30 consecutive days.
Took one piece of skin tissue from each guinea pig, separately. Washed it with precooled normal saline, removed subcutaneous fat and other connective tissue, and then wiped it dry. Each piece of skin tissue was cut to 0.5 g. Then put it into five small tubes containing 2.0 ml of precooled normal saline. The high-speed dispersion machine homogenizes at a speed of […], lasted for 10 seconds, repeated once, centrifuged at a speed of 3500 r/m for 15 minutes, and took the supernatant. Tyrosine was determined by HPLC, MDA was determined by the thiobarbituric acid method, SOD was determined by the xanthine oxidase method, and tyrosine, MDA content, and SOD activity were determined according to the instructions of the kit.
SPSS16.0 software was used for statistics. The measurement data were expressed by mean±standard deviation (x±s). The comparison between multiple groups was performed by one-way ANOVA, and the comparison between groups was performed by t-test. P<0.05 was statistically significant.

[2] = Pharmacokinetic properties of rats (bioavailability); format: in vivo; settings: rat, po; male SD rats; intravenous 1 mg/kg, intragastric 5 mg/kg; plasma LC/MS/MS
Description: Male SD rats were randomly assigned to each group, 12 rats in each compound group, and then randomly divided into two groups. Six rats were administered intravenously (1 mg/kg), and blood was collected and plasma was separated respectively at 0.0833, 0.25, 0.5, 1, 2, 4, 6, 8, and 24 hours after administration. The other six rats were administered intragastrically (5 mg/kg), and blood was collected and plasma was separated respectively at 0.25, 0.5, 1, 2, 4, 6, 8, and 24 hours after administration. The concentration of each compound in plasma was determined by LC/MS/MS method, and the relevant pharmacokinetic parameters were calculated by using the software Phoenix WinNonlin 6.2.1, the bioavailability in rats was calculated, and the pharmacokinetic properties of each compound were evaluated.

Row | Compound | MDA [1] [nmol/mL] | SOD [1] [NU/ml] | tyrosine [1] [µg] | bioavailability [2] [%]
1 | CN1CCC[C@@H](N(C(=O)c2ccc(-n3nnc4cccnc43)cc2)c2ncccc2Cl)C1 [CLY-1, (R)-4-(3H-[1,2,3]triazolo[4,5-b]pyridin-3-yl)-N-(3-chloropyridin-2-yl)-N-(1-methylpiperidin-3-yl)benzamide] | 11.32 ± 1.15 | 103.65 ± 9.63 | 0.45 ± 0.07 | 69.8
2 | CCN1CCC[C@@H](N(C(=O)c2ccc(-n3nnc4cccnc43)cc2)c2ncccc2Cl)C1 [CLY-2, (R)-4-(3H-[1,2,3]triazolo[4,5-b]pyridin-3-yl)-N-(3-chloropyridin-2-yl)-N-(1-ethylpiperidin-3-yl)benzamide] | 10.86 ± 1.19 | 105.23 ± 9.82 | 0.43 ± 0.06 | 72.6
3 | CNC1CCCC(N(C(=O)c2ccc(-n3nnc4cccnc43)cc2)c2ncccc2Cl)C1 (stereo not shown) [CLY-3] | 11.57 ± 1.18 | 97.45 ± 9.23 | 0.51 ± 0.07 | 69.5
4 | O=C(c1ccc(-n2nnc3cccnc32)cc1)N(c1ncccc1Cl)C1CCCC(O)C1 (stereo not shown) [CLY-4] | 11.62 ± 1.15 | 95.12 ± 8.65 | 0.53 ± 0.06 | 59.5
5 | COC1CCCC(N(C(=O)c2ccc(-n3nnc4cccnc43)cc2)c2ncccc2Cl)C1 (stereo not shown) [CLY-5] | 10.65 ± 1.14 | 105.89 ± 9.86 | 0.43 ± 0.05 | 53.8
6 | O=C(c1ccc(-n2nnc3cccnc32)cc1)N(c1ncccc1Cl)[C@@H]1CCNC1 [CLY-8, (R)-4-(3H-[1,2,3]triazolo[4,5-b]pyridin-3-yl)-N-(3-chloropyridin-2-yl)-N-(pyrrolidin-3-yl)benzamide] | 10.59 ± 1.12 | 105.68 ± 9.75 | 0.43 ± 0.03 | 78.2
7 | NC1CCCC(N(C(=O)c2ccc(-n3nnc4cccnc43)cc2)c2ncccc2Cl)C1 (stereo not shown) [CLY-11] | 11.62 ± 1.21 | 95.13 ± 9.16 | 0.54 ± 0.06 | 63.5
8 | O=C(c1ccc(-c2ccccc2-c2nnn[nH]2)cc1)N(c1ncccc1Cl)[C@@H]1CCCNC1 [CLY-19] | 11.75 ± 1.26 | 96.53 ± 9.21 | 0.56 ± 0.07 | 66.3
9 | O=C(c1ccc(-c2ccccc2Cl)cc1)N(c1ncccc1Cl)[C@@H]1CCCNC1 [CLY-36] | 11.83 ± 1.27 | 93.42 ± 9.03 | 0.58 ± 0.08 | 68.6
10 | Nc1ccccc1-c1ccc(C(=O)N(c2ncccc2Cl)[C@@H]2CCCNC2)cc1 [CLY-39] | 10.81 ± 1.23 | 103.16 ± 9.65 | 0.46 ± 0.05 | 65.6
